Test results: patent EP3441076A1, “PHARMACEUTICAL PRODUCT FOR TREATING TUMOR AND COMBINED IMMUNE DEFECT, AND PREPARATION AND APPLICATION THEREOF” (Beijing Lu De Kai Qi Co., Ltd., priority 2016, dated 2017)
Like-named read-outs stand apart in the source and are kept apart here. Marks after values point to notes of the source that are not given here.

How the values were obtained:
[1] = system: polychromatic erythrocytes in bone marrow of mice; details: for Number of micronucleus (in Ge) / Micronucleus rate: 50 mg/kg•bw, positive control; for Number of micronucleus (in Ge): 5000 cells examined; for Micronucleus rate: P<0.01 vs negative control
Method: The walnut extract, the wormwood extract, and the clove bud extract were respectively subjected to a water bath at 70°C for 1 hour, soaked for 12 hours, and concentrated for testing.
(§1) The healthy Kunming mice provided by the Experimental Animal Center of the National Institute for the Control of Pharmaceutical and Biological Products were selected.
The test was carried out via oral gavage and the administration was performed twice at intervals of 24 hrs. 50 mice weighing 25-30 g were randomly divided into 5 groups according to body weight, 10 in each group, half male and half female. […] The doses of the anti-tumor pharmaceutical product for combined immunization according to the present invention were 1.25, 2.50, and 5.00 g/kg•bw, respectively, and the desired concentrations were adjusted with distilled water. The animals were sacrificed by cervical dislocation six hours after the last administration of the anti-tumor pharmaceutical product for combined immunization according to the present invention. The bone marrow of sternum was acquired and diluted with calf serum, smeared, fixed with methanol, and stained with Giemsa. Under the light microscope, 1000 polychromatic erythrocytes (PRC) were counted per animal, and the incidence of micronucleus was calculated by the permillage of micronucleus-containing PRC and statistically processed.

[2] = all dose groups, statistical comparison with distilled water group

Method for sperm: Test materials: The walnut extract, the wormwood extract, and the clove bud extract were all prepared in the same manner as in Example 1. The walnut extract, the wormwood extract, and the clove bud extract were respectively subjected to a water bath at 70°C for 1 hour, soaked for 12 hours, and concentrated for testing.
as §1
Fifty sexually mature male mice weighing 30-35 g were randomly divided into 5 groups. […] The doses of the anti-tumor pharmaceutical product for combined immunization according to the present invention were 1.25, 2.50, and 5.00 g/kg•bw, and the desired concentration were adjusted with distilled water. The mice were administered via oral gavage once a day for 5 days, and the animals were sacrificed 30 days after the last gavage. The epididymis was acquired and sectioned and stained with eosin. Five animals were counted in each group and 1000 intact sperm were counted per animal. The incidence of sperm abnormality (in percentage) was calculated and statistically processed.

Q: `O=P1(N(CCCl)CCCl)NCCCO1` (centres unmarked) [cp, cyclophosphamide] was tested. Which “Number of micronucleus (in Ge)” value ([1]; Female mice) did it give?
A: Its value is 144.

Q: And the Micronucleus rate ([1]; Female mice)?
A: Its Micronucleus rate is 28.8* ‰.

Q: What about the “Number of micronucleus (in Ge)” value ([1]; Male mice) of the same compound?
A: The value was 164.

Q: What about the Micronucleus rate ([1]; Male mice) of the same compound?
A: Its Micronucleus rate is 32.8* ‰.

Q: And the “difference in micronucleus rate from the negative control group” value [1, 2]?
A: Its value is “extremely significant”.

Q: What about the “difference in incidence of sperm abnormality from the negative control group” value (sperm; [2]) of the same compound?
A: Its value is “extremely significant”.

Q: And the “Number of abnormal sperms (in Ge)” value (sperm; male mice, 40 mg/kg•bw, positive control, 5000 sperms examined)?
A: The value was 517.

Q: And the “Rate of sperm abnormality” value (sperm; male mice, 40 mg/kg•bw, positive control, P<0.01 vs negative control)?
A: The value was 10.34* %.
